# Test results published in ChEMBL document CHEMBL1130121, “Chromeno[3,4-c]pyridin-5-ones: selective human dopamine D4 receptor antagonists as potential antipsychotic agents” (J Med Chem, 1997).
# What was measured:
# [1] = target: T1, D(4) dopamine receptor (Homo sapiens) (UniProt P21917); test: Inhibition of mitogenic [3H]thymidine uptake in CHO 10001 cells expressing Dopamine receptor D4; assay type: functional, cell-based
# T1 sequence (whole entry): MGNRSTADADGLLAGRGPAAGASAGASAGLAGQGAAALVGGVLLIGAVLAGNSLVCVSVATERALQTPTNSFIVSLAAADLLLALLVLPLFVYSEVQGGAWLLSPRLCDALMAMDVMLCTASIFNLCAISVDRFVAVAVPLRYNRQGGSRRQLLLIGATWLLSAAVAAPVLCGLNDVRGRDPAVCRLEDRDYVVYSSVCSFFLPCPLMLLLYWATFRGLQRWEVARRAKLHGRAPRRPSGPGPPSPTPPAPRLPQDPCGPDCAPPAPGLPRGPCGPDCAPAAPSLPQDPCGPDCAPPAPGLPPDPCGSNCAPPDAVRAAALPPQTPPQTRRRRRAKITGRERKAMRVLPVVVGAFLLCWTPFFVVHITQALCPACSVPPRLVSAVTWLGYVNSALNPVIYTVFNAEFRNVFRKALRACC
# D(4) dopamine receptor = target: T2, D(4) dopamine receptor (Homo sapiens, UniProt P21917); test: biochemical
# T2 sequence (P21917 whole entry): T1 sequence (whole entry)
# Description: Ability to displace [3H]spiperone from cloned human Dopamine receptor D4 expressed in CHO K-1 cells in vitro
# D(3) dopamine receptor = D(3) dopamine receptor (Homo sapiens, UniProt P35462); test: biochemical
# Description: Ability to displace [3H]spiperone from human cloned Dopamine receptor D3 expressed in CHO K-1 cells in vitro.
# [2] = target: 5-hydroxytryptamine receptor 2A (Rattus norvegicus, UniProt P14842); test: Binding affinity against rat brain 5-hydroxytryptamine 2A receptor
# [3] = target: T3, 5-hydroxytryptamine receptor 1A (Rattus norvegicus, UniProt P19327); test: Binding affinity against rat brain 5-hydroxytryptamine 1A receptor
# T3 sequence (P19327 whole entry): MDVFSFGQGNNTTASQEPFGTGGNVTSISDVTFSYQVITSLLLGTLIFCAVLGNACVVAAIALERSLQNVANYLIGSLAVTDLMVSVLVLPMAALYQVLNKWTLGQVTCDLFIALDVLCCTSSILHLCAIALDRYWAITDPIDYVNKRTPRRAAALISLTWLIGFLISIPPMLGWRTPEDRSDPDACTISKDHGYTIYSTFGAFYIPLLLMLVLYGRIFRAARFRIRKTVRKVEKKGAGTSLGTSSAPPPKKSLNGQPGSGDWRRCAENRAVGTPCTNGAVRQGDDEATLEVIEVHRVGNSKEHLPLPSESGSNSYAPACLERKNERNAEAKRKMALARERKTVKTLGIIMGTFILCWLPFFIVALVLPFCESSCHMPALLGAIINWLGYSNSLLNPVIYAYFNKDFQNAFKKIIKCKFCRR
# [4] = target: T4, Adrenergic receptor alpha-2 (Rattus norvegicus, UniProt P22086+P19328+P22909); test: Binding affinity against rat brain Alpha-2 adrenergic receptor
# T4 sequence (P22086 whole entry): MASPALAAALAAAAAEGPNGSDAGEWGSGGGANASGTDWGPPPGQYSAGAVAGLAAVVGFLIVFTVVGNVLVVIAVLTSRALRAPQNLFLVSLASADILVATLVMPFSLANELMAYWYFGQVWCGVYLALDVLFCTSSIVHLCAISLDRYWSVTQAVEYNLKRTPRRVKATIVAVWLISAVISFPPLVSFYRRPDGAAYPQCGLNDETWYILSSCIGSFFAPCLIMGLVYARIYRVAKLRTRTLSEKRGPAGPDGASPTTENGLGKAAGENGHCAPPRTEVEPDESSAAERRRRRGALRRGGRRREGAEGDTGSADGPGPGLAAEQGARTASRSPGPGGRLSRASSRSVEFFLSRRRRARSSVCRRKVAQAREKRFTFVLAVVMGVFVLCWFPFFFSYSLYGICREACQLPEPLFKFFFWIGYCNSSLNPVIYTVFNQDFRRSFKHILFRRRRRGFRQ
# T4 sequence (P19328 whole entry): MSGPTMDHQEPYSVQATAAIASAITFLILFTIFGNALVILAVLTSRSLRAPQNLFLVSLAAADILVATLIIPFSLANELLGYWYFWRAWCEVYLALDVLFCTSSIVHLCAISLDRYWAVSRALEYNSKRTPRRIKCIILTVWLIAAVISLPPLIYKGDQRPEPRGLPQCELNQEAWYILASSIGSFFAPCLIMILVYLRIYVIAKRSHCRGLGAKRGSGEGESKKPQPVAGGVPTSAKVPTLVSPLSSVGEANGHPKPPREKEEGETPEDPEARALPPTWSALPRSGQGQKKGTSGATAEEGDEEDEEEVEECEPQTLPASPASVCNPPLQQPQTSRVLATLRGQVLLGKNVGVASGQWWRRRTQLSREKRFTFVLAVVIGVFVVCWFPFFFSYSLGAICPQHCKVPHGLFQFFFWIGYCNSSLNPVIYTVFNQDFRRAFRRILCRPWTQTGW
# T4 sequence (P22909 whole entry): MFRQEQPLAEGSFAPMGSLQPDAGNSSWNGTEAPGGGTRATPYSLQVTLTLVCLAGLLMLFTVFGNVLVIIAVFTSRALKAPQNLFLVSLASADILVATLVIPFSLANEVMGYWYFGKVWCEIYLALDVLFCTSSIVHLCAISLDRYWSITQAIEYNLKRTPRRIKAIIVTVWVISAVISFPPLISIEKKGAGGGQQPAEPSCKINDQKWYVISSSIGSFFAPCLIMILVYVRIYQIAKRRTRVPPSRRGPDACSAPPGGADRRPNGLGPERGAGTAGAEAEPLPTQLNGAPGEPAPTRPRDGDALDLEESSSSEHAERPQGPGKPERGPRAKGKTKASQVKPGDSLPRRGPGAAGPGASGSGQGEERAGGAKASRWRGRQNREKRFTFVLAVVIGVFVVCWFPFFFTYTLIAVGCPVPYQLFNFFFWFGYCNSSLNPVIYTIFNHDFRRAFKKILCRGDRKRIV
# [5] = target: T5, Adrenergic receptor alpha-1 (Rattus norvegicus, UniProt P15823+P23944+P43140); test: Binding affinity against rat brain Alpha-1 adrenergic receptor
# T5 sequence (P15823 whole entry): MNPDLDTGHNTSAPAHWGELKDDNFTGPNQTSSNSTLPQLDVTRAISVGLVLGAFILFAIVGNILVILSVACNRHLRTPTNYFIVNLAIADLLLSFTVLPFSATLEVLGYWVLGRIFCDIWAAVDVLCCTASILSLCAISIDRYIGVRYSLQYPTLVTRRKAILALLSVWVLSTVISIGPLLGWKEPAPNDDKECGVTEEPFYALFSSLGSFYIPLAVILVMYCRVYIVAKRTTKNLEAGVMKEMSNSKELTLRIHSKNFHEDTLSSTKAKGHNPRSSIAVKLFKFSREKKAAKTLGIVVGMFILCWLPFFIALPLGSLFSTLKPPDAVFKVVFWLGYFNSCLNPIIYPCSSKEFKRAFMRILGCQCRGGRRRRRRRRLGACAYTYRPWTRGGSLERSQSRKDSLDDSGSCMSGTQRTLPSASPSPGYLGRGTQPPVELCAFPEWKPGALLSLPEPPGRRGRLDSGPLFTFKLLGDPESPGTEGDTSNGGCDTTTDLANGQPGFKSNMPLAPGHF
# T5 sequence (P23944 whole entry): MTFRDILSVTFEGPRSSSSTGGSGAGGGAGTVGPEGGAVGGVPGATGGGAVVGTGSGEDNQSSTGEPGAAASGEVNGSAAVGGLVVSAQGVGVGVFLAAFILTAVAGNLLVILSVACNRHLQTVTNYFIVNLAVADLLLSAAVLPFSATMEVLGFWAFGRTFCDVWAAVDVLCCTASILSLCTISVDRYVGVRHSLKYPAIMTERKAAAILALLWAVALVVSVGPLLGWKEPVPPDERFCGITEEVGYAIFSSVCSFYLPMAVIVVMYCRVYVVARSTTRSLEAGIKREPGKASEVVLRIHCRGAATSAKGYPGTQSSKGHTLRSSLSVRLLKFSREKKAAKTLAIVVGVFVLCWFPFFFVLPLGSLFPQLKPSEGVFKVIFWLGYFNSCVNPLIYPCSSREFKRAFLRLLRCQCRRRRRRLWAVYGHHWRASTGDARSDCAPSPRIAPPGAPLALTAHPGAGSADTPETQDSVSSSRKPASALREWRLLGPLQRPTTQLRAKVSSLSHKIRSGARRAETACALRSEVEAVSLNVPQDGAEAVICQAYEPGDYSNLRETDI
# T5 sequence (P43140 whole entry): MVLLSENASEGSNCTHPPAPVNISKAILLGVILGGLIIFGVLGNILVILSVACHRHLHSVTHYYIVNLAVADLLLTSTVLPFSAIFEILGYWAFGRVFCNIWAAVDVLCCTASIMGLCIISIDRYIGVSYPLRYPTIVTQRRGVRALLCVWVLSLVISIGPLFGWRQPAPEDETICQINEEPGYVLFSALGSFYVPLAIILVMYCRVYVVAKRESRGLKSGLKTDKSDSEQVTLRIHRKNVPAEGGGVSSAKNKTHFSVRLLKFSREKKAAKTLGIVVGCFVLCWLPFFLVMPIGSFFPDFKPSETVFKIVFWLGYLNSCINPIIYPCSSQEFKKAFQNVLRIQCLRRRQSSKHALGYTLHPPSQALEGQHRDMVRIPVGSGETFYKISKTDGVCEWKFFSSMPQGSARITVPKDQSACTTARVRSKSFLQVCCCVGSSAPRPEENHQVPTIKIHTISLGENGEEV
# D(3) dopamine receptor, sequence (P35462 whole entry): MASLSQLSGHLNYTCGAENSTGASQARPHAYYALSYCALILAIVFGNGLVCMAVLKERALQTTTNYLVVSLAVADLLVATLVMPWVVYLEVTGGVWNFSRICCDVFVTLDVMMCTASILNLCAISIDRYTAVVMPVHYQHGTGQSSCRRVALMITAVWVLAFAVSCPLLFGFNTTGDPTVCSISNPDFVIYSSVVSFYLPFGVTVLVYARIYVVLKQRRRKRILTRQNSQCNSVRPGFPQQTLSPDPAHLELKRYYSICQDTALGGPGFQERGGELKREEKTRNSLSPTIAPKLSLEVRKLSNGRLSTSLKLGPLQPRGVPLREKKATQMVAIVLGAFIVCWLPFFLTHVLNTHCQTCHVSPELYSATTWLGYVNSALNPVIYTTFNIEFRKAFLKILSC
# 5-hydroxytryptamine receptor 2A, sequence (P14842 whole entry): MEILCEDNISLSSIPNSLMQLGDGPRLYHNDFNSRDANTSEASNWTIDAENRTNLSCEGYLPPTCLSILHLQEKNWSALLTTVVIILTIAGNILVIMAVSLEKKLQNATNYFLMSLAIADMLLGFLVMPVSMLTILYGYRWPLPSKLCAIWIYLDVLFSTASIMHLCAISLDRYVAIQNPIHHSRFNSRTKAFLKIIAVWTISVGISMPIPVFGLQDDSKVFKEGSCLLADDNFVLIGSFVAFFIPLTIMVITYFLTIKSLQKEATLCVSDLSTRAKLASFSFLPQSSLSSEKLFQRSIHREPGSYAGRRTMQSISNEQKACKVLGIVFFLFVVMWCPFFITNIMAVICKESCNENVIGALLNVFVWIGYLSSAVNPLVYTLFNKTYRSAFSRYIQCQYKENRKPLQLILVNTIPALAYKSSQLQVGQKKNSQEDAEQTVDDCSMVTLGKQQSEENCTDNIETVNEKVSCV
smiles,measurement,setting,value
COc1ccc2c3c(c(=O)oc2c1)CN(Cc1ccc(C(F)(F)F)cc1)CC3,Intrinsic activity,[1],0%
COc1ccc2c3c(c(=O)oc2c1)CN(CCc1ccccc1)CC3,Ki,D(4) dopamine receptor,0.0079 µM
COc1ccc2c3c(c(=O)oc2c1)CN(Cc1ccc(Cl)cc1)CC3,Intrinsic activity,[1],26.8%
same,Ki,D(4) dopamine receptor,0.0087 µM
same,Ki,D(3) dopamine receptor,2.78 µM
COc1ccc2c3c(c(=O)oc2c1)CCN(Cc1ccccc1)C3,Ki,D(4) dopamine receptor,> 3.3 µM
Cc1ccc2c3c(c(=O)oc2c1)CN(Cc1ccccc1)CC3,Ki,[2],> 0.7 µM
same,Intrinsic activity,[1],12.4%
same,Ki,[3],> 0.7 µM
same,Ki,[4],> 0.7 µM
same,Ki,[5],> 0.7 µM
O=c1oc2cc(O)ccc2c2c1CN(Cc1ccc(Cl)cc1)CC2,Intrinsic activity,[1],23.2%
same,Ki,D(4) dopamine receptor,0.0024 µM
same,Ki,D(3) dopamine receptor,0.317 µM
Cc1ccc2c3c(c(=O)oc2c1)CN(Cc1ccc(Cl)cc1)CC3,Ki,D(4) dopamine receptor,0.011 µM
Cc1ccc2c3c(c(=O)oc2c1)CN(Cc1ccc(F)cc1)CC3,Intrinsic activity,[1],0%
same,Ki,D(4) dopamine receptor,0.0075 µM
same,Ki,D(3) dopamine receptor,2.21 µM
COc1ccc2c3c(c(=O)oc2c1)CN(Cc1ccc(F)cc1)CC3,Intrinsic activity,[1],35.2%
same,Ki,D(4) dopamine receptor,0.0043 µM
same,Ki,D(3) dopamine receptor,0.548 µM
COc1ccc2c3c(c(=O)oc2c1)CN(c1ccccc1)CC3,Ki,D(4) dopamine receptor,> 3.3 µM
COc1ccc2c3c(c(=O)oc2c1)CN(Cc1cccc(Cl)c1)CC3,Intrinsic activity,[1],30.7%
same,Ki,D(4) dopamine receptor,0.017 µM
COc1ccc2c3c(c(=O)oc2c1)CN(C(=O)c1ccccc1)CC3,Ki,D(4) dopamine receptor,0.42 µM
COc1ccc2c3c(c(=O)oc2c1)CN(Cc1ccccc1)CC3,Intrinsic activity,[1],23.2%
COc1ccc2c3c(c(=O)oc2c1OC)CN(Cc1ccccc1)CC3,Ki,D(4) dopamine receptor,0.016 µM
same,Ki,D(3) dopamine receptor,1.3 µM
Cc1cc(O)c2c3c(c(=O)oc2c1)CN(Cc1ccccc1)CC3,Ki,D(4) dopamine receptor,0.145 µM
COc1cc2oc(=O)c3c(c2cc1OC)CCN(Cc1ccc(Cl)cc1)C3,Intrinsic activity,[1],21.2%
same,Ki,D(3) dopamine receptor,> 3 µM
COc1ccc2c3c(c(=O)oc2c1)CN(Cc1ccc(C)cc1)CC3,Intrinsic activity,[1],10%
COc1ccc2c3c(c(=O)oc2c1)CN(Cc1ccc([N+](=O)[O-])cc1)CC3,Intrinsic activity,[1],25.2%
same,Ki,D(3) dopamine receptor,> 3 µM
